From patent US8471005B2 (Cephalon, Inc., priority 2008, dated 2013)
Like-named read-outs stand apart in the source and are kept apart here.

Experiments:
ALK = target: T1, ALK (Homo sapiens, UniProt Q9UM73); test: ALK Kinase Assay (ELISA/TRF, PLC-γ substrate); format: biochemical; conditions: read-out: ALK Potency
T1 construct: host or cells: baculovirus expression system
How it was run: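 PLC-γ substrate coated at 10 μg/mL in TBS; reaction started with 30 ng/ml ALK, run 15 min at 37° C. Phosphoproduct detected by TRF with Eu-N1-labeled PT66 anti-phosphotyrosine antibody. IC50 from sigmoidal variable-slope fit of percent inhibition versus log concentration.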

JAK2 = target: T2, JAK2 (Homo sapiens, UniProt O60674); test: Recombinant Human JAK2 Kinase Assay (TRF); format: biochemical; conditions: read-out: JAK2 Potency
T2 construct: host or cells: baculovirus expression system
T2 sequence (O60674 whole entry): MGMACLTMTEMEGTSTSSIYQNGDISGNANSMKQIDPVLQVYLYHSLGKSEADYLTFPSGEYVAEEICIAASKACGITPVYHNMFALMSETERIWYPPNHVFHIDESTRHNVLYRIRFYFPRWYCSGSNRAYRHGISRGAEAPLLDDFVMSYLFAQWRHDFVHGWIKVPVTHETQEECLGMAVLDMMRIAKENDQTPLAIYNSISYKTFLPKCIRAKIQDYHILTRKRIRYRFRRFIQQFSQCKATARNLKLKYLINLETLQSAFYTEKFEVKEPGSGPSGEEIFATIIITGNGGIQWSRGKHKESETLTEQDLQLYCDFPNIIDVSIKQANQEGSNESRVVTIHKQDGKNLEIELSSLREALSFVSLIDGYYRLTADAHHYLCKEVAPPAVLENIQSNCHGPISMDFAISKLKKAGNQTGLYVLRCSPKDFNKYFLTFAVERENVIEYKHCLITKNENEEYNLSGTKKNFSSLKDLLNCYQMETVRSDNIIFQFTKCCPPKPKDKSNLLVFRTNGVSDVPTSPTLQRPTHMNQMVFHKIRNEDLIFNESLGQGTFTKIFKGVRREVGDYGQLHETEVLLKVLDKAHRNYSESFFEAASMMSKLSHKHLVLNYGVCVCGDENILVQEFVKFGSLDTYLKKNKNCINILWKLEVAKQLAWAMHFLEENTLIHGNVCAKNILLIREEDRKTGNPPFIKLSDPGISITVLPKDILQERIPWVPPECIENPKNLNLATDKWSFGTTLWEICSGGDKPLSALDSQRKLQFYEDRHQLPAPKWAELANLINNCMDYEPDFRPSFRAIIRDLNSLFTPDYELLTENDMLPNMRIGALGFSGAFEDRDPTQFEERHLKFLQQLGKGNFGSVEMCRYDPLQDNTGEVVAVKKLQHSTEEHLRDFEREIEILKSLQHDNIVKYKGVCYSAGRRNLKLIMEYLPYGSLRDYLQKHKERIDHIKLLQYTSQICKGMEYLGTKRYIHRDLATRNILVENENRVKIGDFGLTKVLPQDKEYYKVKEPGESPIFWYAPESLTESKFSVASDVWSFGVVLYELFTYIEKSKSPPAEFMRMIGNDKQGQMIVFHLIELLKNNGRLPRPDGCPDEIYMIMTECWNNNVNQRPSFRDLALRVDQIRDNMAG
How it was run: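 TRF read-out: Eu-N1 PY100 anti-phosphotyrosine antibody detects product. Enzyme is baculovirus-expressed JAK2 at 15 ng/ml; substrate is a biotinyl 15-mer peptide bound to Neutravidin-coated wells. Buffer 20 mM HEPES pH 7.2, 0.2 μM ATP, 1 mM MnCl2, 0.1% BSA, 2.5% DMSO final; 20 min, RT.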

[1] = ALK kinase inhibition, 1 μM ATP
[2] = JAK2 kinase inhibition, 0.2 μM ATP

T1 sequence (Q9UM73 19-1620): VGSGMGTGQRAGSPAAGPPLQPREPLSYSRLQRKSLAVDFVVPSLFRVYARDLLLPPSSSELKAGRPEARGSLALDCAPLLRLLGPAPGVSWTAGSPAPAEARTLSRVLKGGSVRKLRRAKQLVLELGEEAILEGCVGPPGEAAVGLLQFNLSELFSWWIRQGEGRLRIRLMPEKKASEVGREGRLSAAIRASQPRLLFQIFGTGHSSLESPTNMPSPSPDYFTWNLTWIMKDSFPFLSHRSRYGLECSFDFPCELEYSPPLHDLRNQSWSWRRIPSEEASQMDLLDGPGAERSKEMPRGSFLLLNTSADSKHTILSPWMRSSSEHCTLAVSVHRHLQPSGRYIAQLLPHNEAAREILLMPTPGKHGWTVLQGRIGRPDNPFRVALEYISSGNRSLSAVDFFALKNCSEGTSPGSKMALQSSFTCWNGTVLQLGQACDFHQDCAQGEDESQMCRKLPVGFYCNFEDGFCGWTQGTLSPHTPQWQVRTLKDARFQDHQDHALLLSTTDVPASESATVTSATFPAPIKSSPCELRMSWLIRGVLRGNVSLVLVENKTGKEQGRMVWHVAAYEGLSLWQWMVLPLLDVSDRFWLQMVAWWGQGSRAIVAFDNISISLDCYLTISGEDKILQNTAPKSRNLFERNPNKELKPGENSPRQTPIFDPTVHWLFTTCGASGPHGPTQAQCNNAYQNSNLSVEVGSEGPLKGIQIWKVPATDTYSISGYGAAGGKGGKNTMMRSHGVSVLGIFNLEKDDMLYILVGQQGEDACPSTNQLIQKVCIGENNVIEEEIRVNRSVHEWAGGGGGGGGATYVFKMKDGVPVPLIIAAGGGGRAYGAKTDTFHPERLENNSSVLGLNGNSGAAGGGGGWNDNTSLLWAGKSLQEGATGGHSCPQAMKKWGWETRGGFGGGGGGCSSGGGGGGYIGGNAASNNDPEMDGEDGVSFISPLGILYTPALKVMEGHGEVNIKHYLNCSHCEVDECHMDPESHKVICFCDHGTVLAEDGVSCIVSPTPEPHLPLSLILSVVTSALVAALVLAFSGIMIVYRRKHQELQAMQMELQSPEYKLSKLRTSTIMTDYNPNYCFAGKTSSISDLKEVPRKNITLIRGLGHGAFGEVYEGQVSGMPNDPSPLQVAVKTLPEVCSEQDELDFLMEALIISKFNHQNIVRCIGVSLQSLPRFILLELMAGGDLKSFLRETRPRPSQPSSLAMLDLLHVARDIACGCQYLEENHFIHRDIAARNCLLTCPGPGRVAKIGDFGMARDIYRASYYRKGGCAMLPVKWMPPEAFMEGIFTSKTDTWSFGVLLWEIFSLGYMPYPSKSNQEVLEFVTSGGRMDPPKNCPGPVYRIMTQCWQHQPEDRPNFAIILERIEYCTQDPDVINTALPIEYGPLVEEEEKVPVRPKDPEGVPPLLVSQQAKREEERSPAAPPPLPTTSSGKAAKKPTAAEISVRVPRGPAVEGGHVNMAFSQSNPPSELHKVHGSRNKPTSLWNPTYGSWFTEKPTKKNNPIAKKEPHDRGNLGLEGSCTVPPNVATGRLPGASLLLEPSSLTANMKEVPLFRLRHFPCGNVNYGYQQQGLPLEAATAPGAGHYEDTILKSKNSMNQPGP

| IC50 (ALK; [1]) [µM] | IC50 (JAK2; [2]) [µM] | IC50 (ALK; ALK Kinase Inhibition) [µM] | IC50 (JAK2; JAK2 Kinase Inhibition) [µM] | Compound |
| --- | --- | --- | --- | --- |
| < 0.1 | < 0.1 |  |  | COc1ccccc1-c1ccc2cnc(Nc3ccc(C4CCN(C[C@H](O)CO)CC4)cc3)nn12 [Example 1125, (S)-3-(4-{4-[7-(2-Methoxy-phenyl)-pyrrolo[2,1-f][1,2,4]triazin-2-ylamino]-phenyl}-piperidin-1-yl)-propane-1,2-diol] |
| 0.1 to 1 | < 0.1 |  |  | [4-(4-Diethylamino-piperidin-1-yl)-phenyl]-[7-(4-methanesulfonyl-phenyl)-pyrrolo[2,1-f][1,2,4]triazin-2-yl]-amine [Example 1136] |
| < 0.1 | 0.1 to 1 |  |  | COc1cc(C2CCCN(C)C2)ccc1Nc1ncc2ccc(-c3ccccc3N(C)S(C)(=O)=O)n2n1 (centres unmarked) [Example 806, N-(2-{2-[2-Methoxy-4-(1-methyl-piperidin-3-yl)-phenylamino]-pyrrolo[2,1-f][1,2,4]triazin-7-yl}-phenyl)-N-methyl-methanesulfonamide] |
|  |  | 1 to 10 | < 0.1 | COc1ccc(Cl)cc1-c1ccc2cnc(Nc3ccc(N4CCOCC4)c(F)c3)nn12 [Example 188, [7-(5-Chloro-2-methoxy-phenyl)-pyrrolo[2,1-f][1,2,4]triazin-2-yl]-(3-fluoro-4-morpholin-4-yl-phenyl)-amine] |
| < 0.1 | 0.1 to 1 |  |  | COc1cc2c(cc1Nc1ncc3ccc(-c4cccc(S(=O)(=O)NC(C)(C)C)c4)n3n1)CCN(CCO)CC2 [Example 699] |
| 1 to 10 | < 0.1 |  |  | COc1ccc(-c2ccc3cnc(Nc4ccc5[nH]c(=O)[nH]c5c4)nn23)cn1 [Example 1309, 5-[7-(6-Methoxy-pyridin-3-yl)-pyrrolo[2,1-f][1,2,4]triazin-2-ylamino]-1,3-dihydro-benzimidazol-2-one] |
| < 0.1 | 0.1 to 1 |  |  | COc1cc(C2CCN(CC(N)=O)CC2)ccc1Nc1ncc2ccc(-c3cccc(S(=O)(=O)NC4CC4)c3)n2n1 [Example 697, 2-(4-{4-[7-(3-Cyclopropylsulfamoyl-phenyl)-pyrrolo[2,1-f][1,2,4]triazin-2-ylamino]-3-methoxy-phenyl}-piperidin-1-yl)-acetamide] |
| < 0.1 | < 0.1 |  |  | CN1CCN(c2ccc(Nc3ncc4ccc(-c5cccc6c5OCCO6)n4n3)cc2)CC1 [Example 548, [7-(2,3-Dihydro-1,4-benzodioxin-5-yl)-pyrrolo[2,1-f][1,2,4]triazin-2-yl]-[4-(4-methyl-piperazin-1-yl)-phenyl]-amine] |
| < 0.1 | 0.1 to 1 |  |  | COc1cc2c(cc1Nc1ncc3ccc(-c4ccccc4N(C)S(C)(=O)=O)n3n1)CN(C(C)C)C2 [Example 876, N-{2-[2-(2-Isopropyl-6-methoxy-2,3-dihydro-1H-isoindol-5-ylamino)-pyrrolo[2,1-f][1,2,4]triazin-7-yl]-phenyl}-N-methyl-methanesulfonamide] |
|  |  | < 0.1 | < 0.1 | COc1cc(N2CCC(N3CCOCC3)CC2)ccc1Nc1ncc2ccc(-c3ccccc3Cl)n2n1 [Example 1466, [7-(2-Chloro-phenyl)-pyrrolo[2,1-f][1,2,4]triazin-2-yl]-[2-methoxy-4-(4-morpholin-4-yl-piperidin-1-yl)-phenyl]-amine] |
|  |  | < 0.1 | 0.1 to 1 | COc1cc(N2CCC(F)(F)CC2)ccc1Nc1ncc2ccc(-c3ccccc3N(C)S(C)(=O)=O)n2n1 [Example 1469, N-(2-{2-[4-(4,4-Difluoro-piperidin-1-yl)-2-methoxy-phenylamino]-pyrrolo[2,1-f][1,2,4]triazin-7-yl}-phenyl)-N-methyl-methanesulfonamide] |
| < 0.1 | 0.1 to 1 |  |  | COc1cc(N2CCC(N3CC[C@H](O)C3)CC2)ccc1Nc1ncc2ccc(-c3ccccc3OC)n2n1 [Example 483, (S)-1-(1-{3-Methoxy-4-[7-(2-methoxy-phenyl)-pyrrolo[2,1-f][1,2,4]triazin-2-ylamino]-phenyl}-piperidin-4-yl)-pyrrolidin-3-ol] |
|  |  | 0.1 to 1 | 0.1 to 1 | Cc1cc2[nH]c(=O)oc2cc1Nc1ncc2ccc(-c3ccccc3N(C)S(C)(=O)=O)n2n1 [Example 1492, N-Methyl-N-{2-[2-(5-methyl-2-oxo-2,3-dihydro-benzoxazol-6-ylamino)-pyrrolo[2,1-f][1,2,4]triazin-7-yl]-phenyl}-methanesulfonamide] |
|  |  | 1 to 10 | < 0.1 | CC1(C)C(=O)Nc2cc(Nc3ncc4ccc(-c5cccc(N6CCCS6(=O)=O)c5)n4n3)ccc21 [Example 1510, 6-({7-[3-(1,1-Dioxido-1,2-thiazolidin-2-yl)phenyl]pyrrolo[2,1-f][1,2,4]triazin-2-yl}amino)-3,3-dimethyl-1,3-dihydro-2H-indol-2-one] |
|  |  | < 0.1 | 1 to 10 | COc1cc2c(cc1Nc1ncc3ccc(-c4ccccc4N(C)S(C)(=O)=O)n3n1)CCC1(CCN(C[C@H](C)O)CC1)O2 [Example 1496, N-{2-[2-({1′-[(25)-2-hydroxypropyl]-7-methoxy-3,4-dihydrospiro[chromene-2,4′-piperidin]-6-yl}amino)pyrrolo[2,1-f][1,2,4]triazin-7-yl]phenyl}-N-methylmethanesulfonamide] |
|  |  | < 0.1 | < 0.1 | CN1CCN(c2ccc(Nc3ncc4ccc(-c5ccc6c(c5)OCCO6)n4n3)cc2)CC1 [Example 8, [7-(2,3-Dihydro-benzo[1,4]dioxin-6-yl)-pyrrolo[2,1-f][1,2,4]triazin-2-yl]-[4-(4-methyl-piperazin-1-yl)-phenyl]-amine] |
|  |  | 1 to 10 | < 0.1 | NC(=O)c1cccc(Nc2ncc3ccc(-c4cccc(Cl)c4)n3n2)c1 [Example 165, 3-[7-(3-Chloro-phenyl)-pyrrolo[2,1-f][1,2,4]triazin-2-ylamino]-benzamide] |
| 1 to 10 | < 0.1 |  |  | c1cc(Sc2ccc3cnc(Nc4ccc(N5CCOCC5)cc4)nn23)ccn1 [Example 1116, (4-Morpholin-4-yl-phenyl)-[7-(pyridin-4-ylsulfanyl)-pyrrolo[2,1-f][1,2,4]triazin-2-yl]-amine] |
|  |  | 1 to 10 | < 0.1 | CC(=O)N1CCc2ccc(Nc3ncc4ccc(-c5cccc(NS(C)(=O)=O)c5)n4n3)cc21 [Example 1367, N-{3-[2-(1-Acetyl-2,3-dihydro-1H-indol-6-ylamino)-pyrrolo[2,1-f][1,2,4]triazin-7-yl]-phenyl}-methanesulfonamide] |
| < 0.1 | 1 to 10 |  |  | COc1cc(C2CCN(CC(N)=O)CC2)ccc1Nc1ncc2ccc(-c3cc(F)c(F)cc3N(C)S(C)(=O)=O)n2n1 [Example 746, 2-[4-(4-{7-[4,5-Difluoro-2-(methanesulfonyl-methyl-amino)-phenyl]-pyrrolo[2,1-f][1,2,4]triazin-2-ylamino}-3-methoxy-phenyl)-piperidin-1-yl]-acetamide] |
|  |  | 0.1 to 1 | < 0.1 | COc1ccc(-c2ccc3cnc(Nc4ccc(C5CCN(CC(N)=O)CC5)cc4)nn23)cn1 [Example 1413, 2-(4-{4-[7-(6-Methoxy-pyridin-3-yl)-pyrrolo[2,1-f][1,2,4]triazin-2-ylamino]-phenyl}-piperidin-1-yl)-acetamide] |
| < 0.1 | 1 to 10 |  |  | COc1cc(N2CCN(C[C@H](C)O)CC2)ccc1Nc1ncc2ccc(-c3c(OC)cccc3OC)n2n1 [Example 543, (S)-1-(4-{4-[7-(2,6-Dimethoxy-phenyl)-pyrrolo[2,1-f][1,2,4]triazin-2-ylamino]-3-methoxy-phenyl}-piperazin-1-yl)-propan-2-ol] |
| 1 to 10 | < 0.1 |  |  | CN1CCCC1COc1cc(Nc2ncc3ccc(-c4cccc(S(C)(=O)=O)c4)n3n2)ccc1Cl (centres unmarked) [Example 1013, [4-Chloro-3-(1-methyl-pyrrolidin-2-ylmethoxy)-phenyl]-[7-(3-methanesulfonyl-phenyl)-pyrrolo[2,1-f][1,2,4]triazin-2-yl]-amine] |
|  |  | < 0.1 | 0.1 to 1 | COc1cc(N2CCC[C@H](C(=O)N3CCN(C)CC3)C2)ccc1Nc1ncc2ccc(-c3ccccc3N(C)S(C)(=O)=O)n2n1 [Example 460, N-[2-(2-{2-Methoxy-4-[(S)-3-(4-methyl-piperazine-1-carbonyl)-piperidin-1-yl]-phenylamino}-pyrrolo[2,1-f][1,2,4]triazin-7-yl)-phenyl]-N-methyl-methanesulfonamide] |
|  |  | < 0.1 | < 0.1 | CN1CCN(CC2CCCN(c3ccc(Nc4ncc5ccc(-c6ccccc6N(C)S(C)(=O)=O)n5n4)cc3)C2)CC1 (centres unmarked) [Example 455, N-Methyl-N-[2-(2-{4-[3-(4-methyl-piperazin-1-ylmethyl)-piperidin-1-yl]-phenylamino}-pyrrolo[2,1-f][1,2,4]triazin-7-yl)-phenyl]-methanesulfonamide] |
| 0.1 to 1 | < 0.1 |  |  | CCN(CC)C1CCN(c2ccc(Nc3ncc4ccc(-c5ccc(OC)nc5)n4n3)cc2)CC1 [Example 1206, [4-(4-Diethylamino-piperidin-1-yl)-phenyl]-[7-(6-methoxy-pyridin-3-yl)-pyrrolo[2,1-f][1,2,4]triazin-2-yl]-amine] |

| Compound | IC50 (ALK; [1]) [µM] | IC50 (JAK2; [2]) [µM] | IC50 (ALK; ALK Kinase Inhibition) [µM] | IC50 (JAK2; JAK2 Kinase Inhibition) [µM] |
| --- | --- | --- | --- | --- |
| COc1ccccc1-c1ccc2cnc(Nc3ccc4c(c3)N3CCC4CC3)nn12 [Example 764, (3,4-Dihydro-2H-1,4-ethano-quinolin-7-yl)-[7-(2-methoxy-phenyl)-pyrrolo[2,1-f][1,2,4]triazin-2-yl]-amine] | < 0.1 | < 0.1 |  |  |
| COc1cc2c(cc1Nc1ncc3ccc(-c4cccc5c4OCC5)n3n1)CCN(C[C@@H](C)O)CC2 [Example 522, (R)-1-{7-[7-(2,3-Dihydro-benzofuran-7-yl)-pyrrolo[2,1-f]triazin-2-ylamino]-8-methoxy-1,2,4,5-tetrahydro-benzo[d]azepin-3-yl}-propan-2-ol] | < 0.1 | 0.1 to 1 |  |  |
